Laboratory results: patent US11267825B2 (AICURIS GMBH & CO. KG, priority 2017, dated 2022)
Like-named read-outs stand apart in the source and are kept apart here.

Key:
HBV = assay: Determination of HBV DNA from the supernatants of HepAD38 cells (anti-HBV activity); format: cell-based, hepatitis B virus; conditions: Hepatitis B virus, read-out: Cell Activity (EC50)
Procedure, shortened: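 EC50 values were obtained by non-linear regression of HBV DNA copy numbers measured by qPCR against pCH-9/3091 plasmid standards. The DNA came from filtered supernatants collected on day 6. Before that, tetracycline-withdrawn HepAD38 cells had been exposed to serial half-log compound dilutions, with tetracycline-treated cells as the non-producing control.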

HBV core protein = HBV core protein (UniProt P03146); format: biochemical; conditions: read-out: Assembly Activity (IC50); BODIPY-FL labelled core protein, assembly started with NaCl, read after 6 min
Description: Biochemical Capsid Assembly Assay
The screening for assembly effector activity was done based on a fluorescence quenching assay published by Zlotnick et al. (2007). The C-terminal truncated core protein containing 149 amino acids of the N-terminal assembly domain was fused to a unique cysteine residue at position 150 and was expressed in E. coli using the pET expression system (Merck Chemicals, Darmstadt). Purification of core dimer protein was performed using a sequence of size exclusion chromatography steps. In brief, the cell pellet from 1 L BL21 (DE3) Rosetta2 culture expressing the coding sequence of core protein cloned NdeI/XhoI into expression plasmid pET21b was treated for 1 h on ice with a native lysis buffer (Qproteome Bacterial Protein Prep Kit; Qiagen, Hilden). After a centrifugation step the supernatant was precipitated during 2 h stirring on ice with 0.23 g/ml of solid ammonium sulfate. Following further centrifugation the resulting pellet was resolved in buffer A (100 mM Tris, pH 7.5; 100 mM NaCl; 2 mM DTT) and was subsequently loaded onto a buffer A equilibrated CaptoCore 700 column (GE HealthCare, Frankfurt). The column flow through containing the assembled HBV capsid was dialyzed against buffer N (50 mM NaHCO3 pH 9.6; 5 mM DTT) before urea was added to a final concentration of 3M to dissociate the capsid into core dimers for 1.5 h on ice. The protein solution was then loaded onto a 1 L Sephacryl S300 column. After elution with buffer N core dimer containing fractions were identified by SDS-PAGE and subsequently pooled and dialyzed against 50 mM HEPES pH 7.5; 5 mM DTT. To improve the assembly capacity of the purified core dimers a second round of assembly and disassembly starting with the addition of 5 M NaCl and including the size exclusion chromatography steps described above was performed. From the last chromatography step core dimer containing fractions were pooled and stored in aliquots at concentrations between 1.5 to 2.0 mg/ml at −80° C.
Immediately before labelling the core protein was reduced by adding freshly prepared DTT in a final concentration of 20 mM. After 40 min incubation on ice storage buffer and DTT was removed using a Sephadex G-25 column (GE HealthCare, Frankfurt) and 50 mM HEPES, pH 7.5. For labelling 1.6 mg/ml core protein was incubated at 4° C. and darkness overnight with BODIPY-FL maleimide (Invitrogen, Karlsruhe) in a final concentration of 1 mM. After labelling the free dye was removed by an additional desalting step using a Sephadex G-25 column. Labelled core dimers were stored in aliquots at 4° C. In the dimeric state the fluorescence signal of the labelled core protein is high and is quenched during the assembly of the core dimers to high molecular capsid structures. The screening assay was performed in black 384 well microtiter plates in a total assay volume of 10 μl using 50 mM HEPES pH 7.5 and 1.0 to 2.0 μM labelled core protein. Each screening compound was added in 8 different concentrations using a 0.5 log-unit serial dilution starting at a final concentration of 100 μM, 31.6 μM or 10 μM. In any case the DMSO concentration over the entire microtiter plate was 0.5%. The assembly reaction was started by the injection of NaCl to a final concentration of […] which induces the assembly process to approximately 25% of the maximal quenched signal. 6 min after starting the reaction the fluorescence signal was measured using a Clariostar plate reader (BMG Labtech, Ortenberg) with an excitation of 477 nm and an emission of 525 nm. As 100% and 0% assembly control HEPES buffer containing 2.5 M and 0 M NaCl was used. Experiments were performed thrice in triplicates. EC50 values were calculated by non-linear regression analysis using the Graph Pad Prism 6 software (GraphPad Software, La Jolla, USA).

[1] = 144 h, HBV DNA in HepAD38 supernatant at day 6

Sequence of HBV core protein (P03146 whole entry, looked up): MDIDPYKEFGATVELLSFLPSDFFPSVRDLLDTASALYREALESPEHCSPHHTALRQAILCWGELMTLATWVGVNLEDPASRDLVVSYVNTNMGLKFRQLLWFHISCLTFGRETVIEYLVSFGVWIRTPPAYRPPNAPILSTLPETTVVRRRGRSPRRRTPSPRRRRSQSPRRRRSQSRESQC

| SMILES | EC50 (HBV; [1]) [µM] | IC50 (HBV core protein) [µM] | EC50 (HBV; HePAD38, 144 h) [µM] |
| --- | --- | --- | --- |
| NCc1nc2c(s1)CN(C(=O)c1cc3ccccc3[nH]1)CC2 [Example 18, [5-(1H-indole-2-carbonyl)-4H,5H,6H,7H-[1,3]thiazolo[5,4-c]pyridin-2-yl]methanamine] | 1 to 10 | < 100 | – |
| COCCC(=O)Nc1nc2c(s1)CN(C(=O)c1cc3ccccc3[nH]1)CC2 [Example 19, N-[5-(1H-indole-2-carbonyl)-4H,5H,6H,7H-[1,3]thiazolo[5,4-c]pyridin-2-yl]-3-methoxypropanamide] | < 1 | < 5 | – |
| O=C(CC1CCOCC1)Nc1nc2c(s1)CN(C(=O)c1cc3ccccc3[nH]1)CC2 [Example 20, N-[5-(1H-indole-2-carbonyl)-4H,5H,6H,7H-[1,3]thiazolo[5,4-c]pyridin-2-yl]-2-(oxan-4-yl)acetamide] | < 1 | < 5 | – |
| CC(Nc1nc2c(s1)CN(C(=O)c1cc3ccccc3[nH]1)CC2)C(F)(F)F (centres unmarked) [Example 22, 5-(1H-indole-2-carbonyl)-N-(1,1,1-trifluoropropan-2-yl)-4H,5H,6H,7H-[1,3]thiazolo[5,4-c]pyridin-2-amine] | < 1 | < 100 | – |
| CN1CCOC(CNc2nc3c(s2)CN(C(=O)c2cc4ccccc4[nH]2)CC3)C1 (centres unmarked) [Example 23, 5-(1H-indole-2-carbonyl)-N-[(4-methylmorpholin-2-yl)methyl]-4H,5H,6H,7H-[1,3]thiazolo[5,4-c]pyridin-2-amine] | 1 to 10 | 5 to 10 | – |
| CS(=O)(=O)Nc1nc2c(s1)CN(C(=O)c1cc3ccccc3[nH]1)CC2 [Example 24, N-[5-(1H-indole-2-carbonyl)-4H,5H,6H,7H-[1,3]thiazolo[5,4-c]pyridin-2-yl]methanesulfonamide] | 1 to 10 | < 100 | – |
| Nc1nc2c(s1)CCN(C(=O)c1cc3ccccc3[nH]1)CC2 [Example 25, 6-(1H-indole-2-carbonyl)-4H,5H,6H,7H,8H-[1,3]thiazolo[4,5-d]azepin-2-amine] | < 100 | < 100 | – |
| CC(C)(C)CC(=O)Nc1nc2c(s1)CN(C(=O)c1cc3ccccc3[nH]1)CC2 [Example 26, N-[5-(1H-indole-2-carbonyl)-4H,5H,6H,7H-[1,3]thiazolo[5,4-c]pyridin-2-yl]-3,3-dimethylbutanamide] | < 1 | 5 to 10 | – |
| O=C(c1cc2ccccc2[nH]1)N1CCc2nc(NCC3(CO)CCC3)sc2C1 [Example 27, [1-({[5-(1H-indole-2-carbonyl)-4H,5H,6H,7H-[1,3]thiazolo[5,4-c]pyridin-2-yl]amino}methyl)cyclobutyl]methanol] | < 1 | < 5 | – |
| CNC(=O)Nc1nc2c(s1)CN(C(=O)c1cc3ccccc3[nH]1)CC2 [Example 28, 1-[5-(1H-indole-2-carbonyl)-4H,5H,6H,7H-[1,3]thiazolo[5,4-c]pyridin-2-yl]-3-methylurea] | < 1 | < 5 | – |
| O=C(c1cc2ccccc2[nH]1)N1CCc2nc(CO)sc2C1 [Example 31, [5-(1H-indole-2-carbonyl)-4H,5H,6H,7H-[1,3]thiazolo[5,4-c]pyridin-2-yl]methanol] | 1 to 10 | 5 to 10 | – |
| CCNCc1nc2c(s1)CN(C(=O)c1cc3ccccc3[nH]1)CC2 [Example 32, Ethyl({[5-(1H-indole-2-carbonyl)-4H,5H,6H,7H-[1,3]thiazolo[5,4-c]pyridin-2-yl]methyl})amine] | < 100 | < 100 | – |
| O=C(c1cc2ccccc2[nH]1)N1CCc2nc(NCC3CCCCO3)sc2C1 (centres unmarked) [Example 35, 5-(1H-indole-2-carbonyl)-N-[(oxan-2-yl)methyl]-4H,5H,6H,7H-[1,3]thiazolo[5,4-c]pyridin-2-amine] | < 1 | 5 to 10 | – |
| O=C(c1cc2ccccc2[nH]1)N1CCc2nc(NCCN3CCOCC3)sc2C1 [Example 36, 5-(1H-indole-2-carbonyl)-N-[2-(morpholin-4-yl)ethyl]-4H,5H,6H,7H-[1,3]thiazolo[5,4-c]pyridin-2-amine] | 1 to 10 | 5 to 10 | – |
| CC(C)OC(=O)[C@H](C)NP(=O)(OCC1(CNc2nc3c(s2)CN(C(=O)c2cc4c(F)cc(F)cc4[nH]2)CC3)CC1)Oc1ccccc1 (stereo partly drawn) [Example 37, Propan-2-yl (2S)-2-[({[1-({[5-(4,6-difluoro-1H-indole-2-carbonyl)-4H,5H,6H,7H-[1,3]thiazolo[5,4-c]pyridin-2-yl]amino}methyl)cyclopropyl]methoxy}(phenoxy)phosphoryl)amino]propanoate] | – | < 100 | < 1 |
| O=C(c1cc2ccccc2[nH]1)N1CCc2nc(CNC3CC3)sc2C1 [Example 38, N-{[5-(1H-indole-2-carbonyl)-4H,5H,6H,7H-[1,3]thiazolo[5,4-c]pyridin-2-yl]methyl}cyclopropanamine] | < 1 | < 5 | – |
| O=C(c1cc2ccccc2[nH]1)N1CCc2nc(CN3CCOCC3)sc2C1 [Example 39, 2-{2-[(morpholin-4-yl)methyl]-4H,5H,6H,7H-[1,3]thiazolo[5,4-c]pyridine-5-carbonyl}-1H-indole] | < 1 | < 5 | – |
| O=C(c1cc2ccccc2[nH]1)N1CCc2nc(CNC3CCOC3)sc2C1 (centres unmarked) [Example 40, N-{[5-(1H-indole-2-carbonyl)-4H,5H,6H,7H-[1,3]thiazolo[5,4-c]pyridin-2-yl]methyl}oxolan-3-amine] | 1 to 10 | 5 to 10 | – |
| O=C(c1cc2ccccc2[nH]1)N1CCc2nc(CNCC3(CO)CC3)sc2C1 [Example 41, {1-[({[5-(1H-indole-2-carbonyl)-4H,5H,6H,7H-[1,3]thiazolo[5,4-c]pyridin-2-yl]methyl}amino)methyl]cyclopropyl}methanol] | 1 to 10 | < 100 | – |
| O=C(c1cc2ccccc2[nH]1)N1CCc2nc(NC3CC(CO)(CO)C3)sc2C1 [Example 42, [1-(hydroxymethyl)-3-{[5-(1H-indole-2-carbonyl)-4H,5H,6H,7H-[1,3]thiazolo[5,4-c]pyridin-2-yl]amino}cyclobutyl]methanol] | < 1 | < 5 | – |
| O=C(c1cc2ccccc2[nH]1)N1CCc2nc(NC(CO)CO)sc2C1 [Example 43, 2-{[5-(1H-indole-2-carbonyl)-4H,5H,6H,7H-[1,3]thiazolo[5,4-c]pyridin-2-yl]amino}propane-1,3-diol] | < 1 | < 5 | – |
| O=C(c1cc2ccccc2[nH]1)N1CCc2nc(NCC3(O)COC3)sc2C1 [Example 44, 3-({[5-(1H-indole-2-carbonyl)-4H,5H,6H,7H-[1,3]thiazolo[5,4-c]pyridin-2-yl]amino}methyl)oxetan-3-ol] | < 1 | < 5 | – |
| O=C(c1cc2ccccc2[nH]1)N1CCc2nc(N[C@H]3CC[C@@H](O)CC3)sc2C1 [Example 45, (1s,4s)-4-{[5-(1H-indole-2-carbonyl)-4H,5H,6H,7H-[1,3]thiazolo[5,4-c]pyridin-2-yl]amino}cyclohexan-1-ol] | < 1 | < 5 | – |
| O=C(c1cc2ccccc2[nH]1)N1CCc2nc(NCC3(O)CCC3)sc2C1 [Example 46, 1-({[5-(1H-indole-2-carbonyl)-4H,5H,6H,7H-[1,3]thiazolo[5,4-c]pyridin-2-yl]amino}methyl)cyclobutan-1-ol] | < 1 | < 5 | – |
| O=C(c1cc2ccccc2[nH]1)N1CCc2nc(N[C@H]3CCCC[C@@H]3O)sc2C1 [Example 47, (1S,2S)-2-{[5-(1H-indole-2-carbonyl)-4H,5H,6H,7H-[1,3]thiazolo[5,4-c]pyridin-2-yl]amino}cyclohexan-1-ol] | < 1 | < 5 | – |
